Assay results reported in patent publication US20240425500A1 (priority 2021, published 2024).

The compounds below were run on Pythium ultimum (assay: Pythium ultimum / liquid culture (seedling damping off)). Conditions: Globisporangium ultimum, liquid culture in PDB, 24 °C, 2-3 days after application, read-out: control of Pythium ultimum (inhibition of growth, photometric) compared to untreated control.
Type: cell-based
Protocol: Pythium ultimum/Liquid Culture (Seedling Damping Off):
Mycelia fragments and oospores of a newly grown liquid culture of the fungus are directly mixed into nutrient broth (PDB potato dextrose broth). After placing a (DMSO) solution of test compound into a microtiter plate (96-well format), the nutrient broth containing the fungal mycelia/spore mixture is added. The test plates are incubated at 24° C. and the inhibition of growth is determined photometrically 2-3 days after application.
Compound `COC(=O)Nc1ccc(-c2cnc3ccc(C(=O)N(C)c4ccnc(C)c4)cn23)cc1` [Compound 12, methyl N-[4-[6-[methyl-(2-methyl-4-pyridyl)carbamoyl]imidazo [1,2-a]pyridin-3-yl]phenyl]carbamate] has an inhibition at 20 ppm of at least 80%. In the case of `COC(=O)Nc1ccc(-c2cnc3ccc(C(=O)N(C)c4ccc(C)c(C)c4)cn23)cc1` [Compound 13, methyl N-[4-[6-[(3,4-dimethylphenyl)-methyl-carbamoyl]imidazo[1,2-a]pyridin-3-yl]phenyl]carbamate], the inhibition at 20 ppm is reported as at least 80%. In the case of `COC(=O)Nc1ccc(-c2cnc3ccc(C(=O)N(C)c4ccc(C)cc4)cn23)cc1` [Compound 16, methyl N-[4-[6-[methyl (p-tolyl)carbamoyl]imidazo [1,2-a]pyridin-3-yl]phenyl]carbamate], the inhibition at 20 ppm is reported as at least 80%. For `COC(=O)Nc1ccc(-c2cnc3cc(C)c(C(=O)N(C)c4ccc(Cl)cc4)cn23)cc1` [Compound 18, methyl N-[4-[6-[(4-chlorophenyl)-methyl-carbamoyl]-7-methyl-imidazo[1,2-a]pyridin-3-yl]phenyl]carbamate], the inhibition at 20 ppm was at least 80%. In the case of `COC(=O)Nc1ccc(-c2cnc3ccc(C(=O)N(C)c4ccncc4)cn23)cc1` [Compound 24, methyl N-[4-[6-[methyl(4-pyridyl)carbamoyl]imidazo [1,2-a]pyridin-3-yl]phenyl]carbamate], the inhibition at 20 ppm is reported as at least 80%. `COC(=O)Nc1ccc(-c2cnc3ccc(C(=O)N(CC4CC4)c4ccc(Cl)cc4)cn23)cc1` [Compound 28, methyl N-[4-[6-[(4-chlorophenyl)-(cyclopropylmethyl)carbamoyl]imidazo[1,2-a]pyridin-3-yl]phenyl]carbamate] was tested, and the inhibition at 20 ppm was at least 80%. In the case of `COC(=O)Nc1ccc(-c2cnc3ccc(C(=O)N(CC(F)(F)F)c4ccc(Cl)cc4)cn23)cc1` [Compound 29, methyl N-[4-[6-[(4-chlorophenyl)-(2,2,2-trifluoroethyl)carbamoyl]imidazo [1,2-a]pyridin-3-yl]phenyl]carbamate], the inhibition at 20 ppm is reported as at least 80%. For `CCCN(C(=O)c1ccc2ncc(-c3ccc(NC(=O)OC)cc3)n2c1)c1ccc(Cl)cc1` [Compound 30, methyl N-[4-[6-[(4-chlorophenyl)-propyl-carbamoyl]imidazo[1,2-a]pyridin-3-yl]phenyl]carbamate], the inhibition at 20 ppm was at least 80%. Compound `C#CCN(C(=O)c1ccc2ncc(-c3ccc(NC(=O)OC)cc3)n2c1)c1ccc(Cl)cc1` [Compound 33, methyl N-[4-[6-[(4-chlorophenyl)-prop-2-ynyl-carbamoyl]imidazo[1,2-a]pyridin-3-yl]phenyl]carbamate] has an inhibition at 20 ppm of at least 80%. `COC(=O)Nc1ccc(-c2cnc3cc(Br)c(C(=O)N(C)c4ccc(Cl)cc4)cn23)cc1` [Compound 34, methyl N-[4-[7-bromo-6-[(4-chlorophenyl)-methyl-carbamoyl]imidazo[1,2-a]pyridin-3-yl]phenyl]carbamate] was tested, and the inhibition at 20 ppm was at least 80%. In the case of `COC(=O)Nc1ccc(-c2cnc3cc(OC)c(C(=O)N(C)c4ccc(Cl)cc4)cn23)cc1` [Compound 39, methyl N-[4-[6-[(4-chlorophenyl)-methyl-carbamoyl]-7-methoxy-imidazo[1,2-a]pyridin-3-yl]phenyl]carbamate], the inhibition at 20 ppm is reported as at least 80%. In the case of `COC(=O)Nc1ccc(-c2cnc3cc(C#N)c(C(=O)N(C)c4ccc(Cl)cc4)cn23)cc1` [Compound 41, methyl N-[4-[6-[(4-chlorophenyl)-methyl-carbamoyl]-7-cyano-imidazo[1,2-a]pyridin-3-yl]phenyl]carbamate], the inhibition at 20 ppm is reported as at least 80%. For `COC(=O)Nc1ccc(-c2cnc3cc(F)c(C(=O)N(C)c4ccc(Cl)cc4)cn23)cc1` [Compound 42, methyl N-[4-[6-[(4-chlorophenyl)-methyl-carbamoyl]-7-fluoro-imidazo[1,2-a]pyridin-3-yl]phenyl]carbamate], the inhibition at 20 ppm was at least 80%. In the case of `COC(=O)Nc1ccc(-c2cnc3ccc(C(=O)N(C)c4cccc(C)c4)cn23)cn1` [Compound 54, methyl N-[5-[6-[methyl(m-tolyl)carbamoyl]imidazo [1,2-a]pyridin-3-yl]-2-pyridyl]carbamate], the inhibition at 20 ppm is reported as at least 80%. Work on `COC(=O)Nc1ccc(-c2cnc3ccc(C(=O)N(C)c4cc(C)cc(OC)c4)cn23)cn1` [Compound 59, methyl N-[5-[6-[(3-methoxy-5-methyl-phenyl)-methyl-carbamoyl]imidazo[1,2-a]pyridin-3-yl]-2-pyridyl]carbamate] yielded an inhibition at 20 ppm of at least 80%. `COC(=O)Nc1ccc(-c2cnc3ccc(C(=O)N(C)c4ccc(F)nc4)cn23)cn1` [Compound 60, methyl N-[5-[6-[(6-fluoro-3-pyridyl)-methyl-carbamoyl]imidazo[1,2-a]pyridin-3-yl]-2-pyridyl]carbamate] showed an inhibition at 20 ppm of at least 80%. With `COC(=O)Nc1ccc(-c2cnc3ccc(C(=O)N(C)c4ccc(C)c(C)c4)cn23)cn1` [Compound 65, methyl N-[5-[6-[(3,4-dimethylphenyl)-methyl-carbamoyl]imidazo[1,2-a]pyridin-3-yl]-2-pyridyl]carbamate] the inhibition at 20 ppm was at least 80%. `COC(=O)Nc1ccc(-c2cnc3ccc(C(=O)N(C)c4ccc(OC(F)F)cc4)cn23)cn1` [Compound 66, methyl N-[5-[6-[[4-(difluoromethoxy)phenyl]-methyl-carbamoyl]imidazo[1,2-a]pyridin-3-yl]-2-pyridyl]carbamate] gave an inhibition at 20 ppm of at least 80%. In the case of `COC(=O)Nc1ccc(-c2cnc3ccc(C(=O)N(C)c4ccc(Br)cc4)cn23)cn1` [Compound 68, methyl N-[5-[6-[(4-bromophenyl)-methyl-carbamoyl]imidazo[1,2-a]pyridin-3-yl]-2-pyridyl]carbamate], the inhibition at 20 ppm is reported as at least 80%. Work on `COC(=O)Nc1ccc(-c2cnc3ccc(C(=O)N(C)c4cccc(Br)c4)cn23)cn1` [Compound 69, methyl N-[5-[6-[(3-bromophenyl)-methyl-carbamoyl]imidazo[1,2-a]pyridin-3-yl]-2-pyridyl]carbamate] yielded an inhibition at 20 ppm of at least 80%. `COC(=O)Nc1ccc(-c2cnc3ccc(C(=O)N(C)c4cccc(C5CC5)c4)cn23)cn1` [Compound 72, methyl N-[5-[6-[(3-cyclopropylphenyl)-methyl-carbamoyl]imidazo[1,2-a]pyridin-3-yl]-2-pyridyl]carbamate] gave an inhibition at 20 ppm of at least 80%. Compound `COC(=O)CN(C(=O)c1ccc2ncc(-c3ccc(NC(=O)OC)nc3)n2c1)c1ccc(F)c(OC)c1` [Compound 91, methyl 2-(4-fluoro-3-methoxy-N-[3-[6-(methoxycarbonyl-amino)-3-pyridyl]imidazo[1,2-a]pyridine-6-carbonyl]anilino)acetate] has an inhibition at 20 ppm of at least 80%. `COC(=O)Nc1ccc(-c2cnc3ccc(C(=O)N(C)c4ccc(C(C)=O)cc4)cn23)cn1` [Compound 104, methyl N-[5-[6-[(4-acetylphenyl)-methyl-carbamoyl]imidazo[1,2-a]pyridin-3-yl]-2-pyridyl]carbamate] gave an inhibition at 20 ppm of at least 80%. `COC(=O)Nc1ccc(-c2cnc3ccc(C(=O)N(CC#N)c4ccccc4)cn23)cn1` [Compound 108, methyl N-[5-[6-[cyanomethyl(phenyl)carbamoyl]imidazo[1,2-a]pyridin-3-yl]-2-pyridyl] carbamate] was tested, and the inhibition at 20 ppm was at least 80%. In the case of `COC(=O)Nc1ccc(-c2cnc3ccc(C(=O)N(CCO)c4ccccc4)cn23)cn1` [Compound 112, methyl N-[5-[6-[2-hydroxyethyl(phenyl)carbamoyl]imidazo [1,2-a]pyridin-3-yl]-2-pyridyl]carbamate], the inhibition at 20 ppm is reported as at least 80%. Compound `COC(=O)Nc1ccc(-c2cnc3ccc(C(=O)N(C)c4ccc(Cl)c(C(F)(F)F)c4)cn23)cn1` [Compound 121, methyl N-[5-[6-[[4-chloro-3-(trifluoromethyl)phenyl]-methyl-carbamoyl]imidazo[1,2-a]pyridin-3-yl]-2-pyridyl]carbamate] has an inhibition at 20 ppm of at least 80%. In the case of `CCOC(=O)c1cccc(N(CC)C(=O)c2ccc3ncc(-c4ccc(NC(=O)OC)nc4)n3c2)c1` [Compound 122, ethyl 3-[ethyl-[3-[6-(methoxycarbonyl-amino)-3-pyridyl]imidazo[1,2-a]pyridine-6-carbonyl]amino]benzoate], the inhibition at 20 ppm is reported as at least 80%. With `COC(=O)Nc1ccc(-c2cnc3ccc(C(=O)N(CCC#N)c4ccc(C)cc4)cn23)cn1` [Compound 125, methyl N-[5-[6-[2-cyanoethyl(p-tolyl)carbamoyl]imidazo[1,2-a]pyridin-3-yl]-2-pyridyl]carbamate] the inhibition at 20 ppm was at least 80%. `CCN(C(=O)c1ccc2ncc(-c3ccc(NC(=O)OC)nc3)n2c1)c1ccc(C)c(F)c1` [Compound 127, methyl N-[5-[6-[ethyl-(3-fluoro-4-methyl-phenyl)carbamoyl]imidazo [1,2-a]pyridin-3-yl]-2-pyridyl]carbamate] gave an inhibition at 20 ppm of at least 80%. `CCN(C(=O)c1ccc2ncc(-c3ccc(NC(=O)OC)nc3)n2c1)c1cccc(C#N)c1` [Compound 141, methyl N-[5-[6-[(3-cyanophenyl)-ethyl-carbamoyl]imidazo[1,2-a]pyridin-3-yl]-2-pyridyl]carbamate] gave an inhibition at 20 ppm of at least 80%. `COC(=O)Nc1ccc(-c2cnc3ccc(C(=O)N(CC#N)c4ccc(C)cc4)cn23)cn1` [Compound 143, methyl N-[5-[6-[cyanomethyl(p-tolyl)carbamoyl]imidazo [1,2-a]pyridin-3-yl]-2-pyridyl]carbamate] gave an inhibition at 20 ppm of at least 80%. `CCN(C(=O)c1ccc2ncc(-c3ccc(NC(=O)OC)nc3)n2c1)c1cccc(F)c1` [Compound 145, methyl N-[5-[6-[ethyl-(3-fluorophenyl)carbamoyl]imidazo[1,2-a]pyridin-3-yl]-2-pyridyl]carbamate] showed an inhibition at 20 ppm of at least 80%. For `COC(=O)Nc1ccc(-c2cnc3ccc(C(=O)N(c4ccccc4)C4CC4)cn23)cn1` [Compound 147, methyl N-[5-[6-[cyclopropyl(phenyl)carbamoyl]imidazo [1,2-a]pyridin-3-yl]-2-pyridyl]carbamate], the inhibition at 20 ppm was at least 80%. For `COC(=O)Nc1ccc(-c2cnc3ccc(C(=O)N(CCC#N)c4ccc(Cl)c(C)c4)cn23)cn1` [Compound 148, methyl N-[5-[6-[(4-chloro-3-methyl-phenyl)-(2-cyanoethyl)carbamoyl]imidazo[1,2-a]pyridin-3-yl]-2-pyridyl]carbamate], the inhibition at 20 ppm was at least 80%.
